The source of these data is paper PMC7854510 (Molecular microbiology, 2020).

For this assay, the target named is T1, rLacR (UA159) (Streptococcus mutans, UniProt P26422).
T1 sequence (P26422 1-251): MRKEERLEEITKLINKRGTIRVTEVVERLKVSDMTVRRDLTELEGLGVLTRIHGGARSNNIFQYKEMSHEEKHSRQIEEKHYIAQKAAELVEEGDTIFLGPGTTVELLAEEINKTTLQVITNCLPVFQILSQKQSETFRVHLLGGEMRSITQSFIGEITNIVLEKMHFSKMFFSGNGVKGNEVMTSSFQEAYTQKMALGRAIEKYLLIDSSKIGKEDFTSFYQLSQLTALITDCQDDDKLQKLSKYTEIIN
The assay can be described thus: DNase I footprinting by capillary electrophoresis. The conditions noted are these: 5 mM; fluorescent UA159 lacA probe. The class given is binding.

In the case of `O=P(O)(O)OC[C@H]1OC(O)[C@H](O)[C@@H](O)[C@H]1O` (stereo partly shown) [Gal-6-P], the “DNase I footprinting by capillary electrophoresis (DFACE)” value is “addition of Gal-6-P resulted in the appearance of a DNase I hyper-sensitive site”.
